# Assays:
# Format in all cases: in vivo, swine
# [1] = Necropsy and histopathology examination of nursing piglets at 21 d; conditions: for Kidney: Mild tubular ectasia (number of piglets) / Kidney: Moderate ectasia (number of piglets) / Kidney: Prominent ectasia (number of piglets) / Kidney: Rare tubular ectasia (number of piglets) / Kidney: Within normal limits (number of piglets) / Liver: Within normal limits (number of piglets) / Small Intestine: Within normal limits (number of piglets) / Stomach: Mild gastritis (number of piglets) / Stomach: Mild vasculitis, muscle layer (number of piglets) / Stomach: Within normal limits (number of piglets): nursing piglets, 21 d
# Description: Thereafter, sows and piglets in all groups were humanely euthanized and examined for macroscopic signs of NSAID toxicity. Necropsies were performed on all animals to inspect for macroscopic signs of NSAID toxicity. Samples of kidney, liver, small intestine and stomach were sectioned into 0.5-1 cm slices and placed in plastic jars containing 10% buffered formalin in a 10:1 formalin:tissue ratio for histopathology examination.
# Formalin-fixed sections of kidney, liver, small intestine and stomach from sows and 3 piglets/litter were trimmed and positioned in cassettes loaded into an automated tissue processor (Sakura VIP 5, Sakura Finetek, Torrance, Calif.) for overnight paraffin infiltration. Processed tissues in cassettes were then placed in a paraffin bath (Sakura Tissue-Tek TEC 5, Sakura Finetek, Torrance, Calif.) after which they were removed from the cassette and oriented in molds. […] Tissue sections were cut at 4 microns from the cooled blocks. Paraffin ribbons with tissue were then laid out on a water bath and the floating tissue sections were collected onto microscope slides. The unstained tissue sections were then mounted on the slide and dried at 60° C. for 20 minutes. Finally, the tissue was deparaffinized and rehydrated for staining by transfer through xylene and a series of decreasing concentrations of alcohol to hematoxylin on an automated stainer (Sakura Tissue-Tek Prisma, Sakura Finetek, Torrance, Calif.). After a tap water rinse, the tissue on the slide was counterstained with eosin, dehydrated in an alcohol series, cleared in xylene and cover slipped (Sakura Tissue-Tek Glas g2) prior to histological examination by a veterinary diagnostician with experience in the histological examination of swine tissues.
# [2] = Preweaning piglet deaths per sow treatment group
# Description: Protocols involved intramuscular injection of Firocoxib to lactating sows at either 0.5, 1.0, 1.5 or 2 mg/kg, and analysis in sows and select piglets at 21 days post treatment. Pregnant Yorkshire×Landrace sows (mean±SEM bodyweight, 250.3±7.61 kg) that were approximately 1 week before farrowing were sourced from a commercial swine farm. Each sow was examined by a veterinarian to confirm that she was healthy and pregnant. A unique numerical ear tag (Allflex Global Ear Tags, Allflex USA, Inc., DFW Airport, TX) was placed in the right ear of each sow for identification. The sows were housed in a commercial swine operation at MVS (West Point, Nebr.) in accordance with the recommendations in the Guide for the Care and Use of Agricultural Animals in Agricultural Use and Research and Teaching (Guide for the Care and Use of Agricultural Animals in Agricultural Research and Teaching, 2010). Sows were placed in Quad- or Euro-style farrowing stalls (Thorp Equipment, Thorp, Wis.), depending on availability. Regardless of stall type, each sow was housed in a farrowing crate measuring 0.6 m×2.1 m. Quad and Euro crates had piglet creep areas of 7.0 m^2 and 6.4 m^2, respectively. After farrowing, a heat lamp was provided on one side of the creep area for the piglets in each crate. All sows were fed a diet that met or exceeded National Research Council (NRC, 2012) nutrient requirements and water was provided ad libitum. Each litter provided at least six male and three female piglets for sampling with the exception of one sow that had 5 males and 4 females in the litter, and one sow that had 3 males and 6 females in the litter. Piglets were clinically examined and weighed on Study Day 0 prior to dosing. Cross fostering of the litters was permitted. Bodyweights were used to randomly assign sows to 1 of 4 treatment groups (n=4 sows/group) as detailed in Table 3.
# A sample size of 4 sows was selected to describe the pharmacokinetics of firocoxib. For the comparison of plasma cortisol concentrations and average daily gain in bodyweight (ADG), a sample size of 36 piglets/treatment group was calculated to provide Statistical Power of 0.8 assuming an alpha of 0.05, sigma of 0.54 and delta of 0.20. At the time of study commencement (T0), sows received a single dose of firocoxib (Equioxx Injection, Merial, Duluth, Ga.) (Lot number 4VP07, Expiration Date November 2017) administered at either 0.5 mg/kg, 1.0 mg/kg, 1.5 mg/kg, or 2.0 mg/kg by IM injection into the right lateral neck using an 18-gauge, 1.5-inch needle attached to a 20-mL syringe (Table 3). In cases where the calculated dose volume exceeded 20-mL, the remaining volume was administered via IM injection in the left lateral neck muscle.
# [3] = Plasma firocoxib in nursing piglets after transmammary delivery (Example 1); conditions: piglets nursing sow given 1.5 mg/kg IM; from 2 hours post-exposure to end of study (48 h)
# Description: Blood (sodium heparin tubes) was collected from the sow via jugular venipuncture at the following time points after drug administration via injection to the sow: 0, 1, 2, 3, 4, 6, 8, 10, 12, 24, 36 and 48 hours. The piglets had blood collected via jugular venipuncture at the following timepoints following sow drug administration via injection:
# Piglets 1-3 was bled at times 0, 3, 8 and 24 hours
# Piglets 4-6 was bled at times 1, 4, 10 and 36 hours
# Piglets 7-9 was bled at times 2, 6, 12 and 48 hours.
# Approximately 10 mL of blood was collected from the sow at each time point, and approximately 5 mL was collected from each piglet at each time point. Following blood collection at the 48 hour time point, the sow and piglets was euthanized and disposed of per study site procedures. […]
# Plasma concentrations of firocoxib were measured with high-pressure liquid chromatography-tandem mass spectrometry (Shimadzu Prominence, Shimadzu Scientific Instruments, Columbia, Md., USA). […]
# The standard curve of firocoxib concentration determined using porcine plasma was linear from 0.020 to 5.0 μg/mL and was accepted when the correlation coefficient exceeded 0.99 and measured values were within 15% of the actual values. The lower limit of quantification, defined as the lowest concentration on a linear standard curve with predicted concentrations within 15% of the actual concentration, was 0.020 μg/mL.
structure (smiles),measurement,setting,value
CC1(C)OC(=O)C(OCC2CC2)=C1c1ccc(S(C)(=O)=O)cc1 [firocoxib],Kidney: Mild tubular ectasia (number of piglets),[1]; sow dose 0.5 mg/kg IM,5
same,Kidney: Moderate ectasia (number of piglets),[1]; sow dose 0.5 mg/kg IM,0
same,Kidney: Prominent ectasia (number of piglets),[1]; sow dose 0.5 mg/kg IM,5
same,Kidney: Rare tubular ectasia (number of piglets),[1]; sow dose 0.5 mg/kg IM,1
same,Kidney: Within normal limits (number of piglets),[1]; sow dose 0.5 mg/kg IM,1
same,Liver: Within normal limits (number of piglets),[1]; sow dose 0.5 mg/kg IM,12
same,Small Intestine: Within normal limits (number of piglets),[1]; sow dose 0.5 mg/kg IM,12
same,Stomach: Mild gastritis (number of piglets),[1]; sow dose 0.5 mg/kg IM,5
same,"Stomach: Mild vasculitis, muscle layer (number of piglets)",[1]; sow dose 0.5 mg/kg IM,2
same,Stomach: Within normal limits (number of piglets),[1]; sow dose 0.5 mg/kg IM,5
same,Kidney: Mild tubular ectasia (number of piglets),[1]; sow dose 1.0 mg/kg IM,9
same,Kidney: Moderate ectasia (number of piglets),[1]; sow dose 1.0 mg/kg IM,0
same,Kidney: Prominent ectasia (number of piglets),[1]; sow dose 1.0 mg/kg IM,0
same,Kidney: Rare tubular ectasia (number of piglets),[1]; sow dose 1.0 mg/kg IM,1
same,Kidney: Within normal limits (number of piglets),[1]; sow dose 1.0 mg/kg IM,2
same,Liver: Within normal limits (number of piglets),[1]; sow dose 1.0 mg/kg IM,12
same,Small Intestine: Within normal limits (number of piglets),[1]; sow dose 1.0 mg/kg IM,12
same,Stomach: Mild gastritis (number of piglets),[1]; sow dose 1.0 mg/kg IM,6
same,"Stomach: Mild vasculitis, muscle layer (number of piglets)",[1]; sow dose 1.0 mg/kg IM,2
same,Stomach: Within normal limits (number of piglets),[1]; sow dose 1.0 mg/kg IM,4
same,Kidney: Mild tubular ectasia (number of piglets),[1]; sow dose 1.5 mg/kg IM,9
same,Kidney: Moderate ectasia (number of piglets),[1]; sow dose 1.5 mg/kg IM,0
same,Kidney: Prominent ectasia (number of piglets),[1]; sow dose 1.5 mg/kg IM,3
same,Kidney: Rare tubular ectasia (number of piglets),[1]; sow dose 1.5 mg/kg IM,0
same,Kidney: Within normal limits (number of piglets),[1]; sow dose 1.5 mg/kg IM,0
same,Liver: Within normal limits (number of piglets),[1]; sow dose 1.5 mg/kg IM,12
same,Small Intestine: Within normal limits (number of piglets),[1]; sow dose 1.5 mg/kg IM,12
same,Stomach: Mild gastritis (number of piglets),[1]; sow dose 1.5 mg/kg IM,6
same,"Stomach: Mild vasculitis, muscle layer (number of piglets)",[1]; sow dose 1.5 mg/kg IM,3
same,Stomach: Within normal limits (number of piglets),[1]; sow dose 1.5 mg/kg IM,3
same,Kidney: Mild tubular ectasia (number of piglets),[1]; sow dose 2.0 mg/kg IM,5
same,Kidney: Moderate ectasia (number of piglets),[1]; sow dose 2.0 mg/kg IM,1
same,Kidney: Prominent ectasia (number of piglets),[1]; sow dose 2.0 mg/kg IM,3
same,Kidney: Rare tubular ectasia (number of piglets),[1]; sow dose 2.0 mg/kg IM,0
same,Kidney: Within normal limits (number of piglets),[1]; sow dose 2.0 mg/kg IM,3
same,Liver: Within normal limits (number of piglets),[1]; sow dose 2.0 mg/kg IM,12
same,Small Intestine: Within normal limits (number of piglets),[1]; sow dose 2.0 mg/kg IM,12
same,Stomach: Mild gastritis (number of piglets),[1]; sow dose 2.0 mg/kg IM,2
same,"Stomach: Mild vasculitis, muscle layer (number of piglets)",[1]; sow dose 2.0 mg/kg IM,1
same,Stomach: Within normal limits (number of piglets),[1]; sow dose 2.0 mg/kg IM,9
same,kidneys with ectatic tubules (number),"[1]; piglets, all treatment groups",10
same,sections of stomach lining with mild gastritis (number),"[1]; piglets, all treatment groups",19
same,"Preweaning piglet deaths, Total","[2]; sow treatment group #1, 0.5 mg/kg",2
same,"Preweaning piglet deaths, Total","[2]; sow treatment group #2, 1.0 mg/kg",3
same,"Preweaning piglet deaths, Total","[2]; sow treatment group #3, 1.5 mg/kg",3
same,"Preweaning piglet deaths, Total","[2]; sow treatment group #4, 2.0 mg/kg",0
same,plasma drug concentrations in piglets,[3],above 10 ng/mL
